Measurements reported in the NIST ThermoML archive (doi:10.1016/j.tca.2010.09.004).
Numbers after ± are expanded uncertainties.

Assay: xn = mol fraction of the nth substance listed
Conditions: 101 kPa, Liquid; for speed of sound: Sing-around technique in a fixed-path interferometer; for mass density: Vibrating tube method

CCCCNCCCC [dibutylamine] + CCC(C)=O
Conditions | mass density [kg/m3] | speed of sound [m/s]
293.15 K, x2 = 0.0568 | 760.739 ± 0.2 | 1258.2 ± 1.1
293.15 K, x2 = 0.1152 | 762.014 ± 0.2 | 1255 ± 1.1
293.15 K, x2 = 0.1488 | 762.814 ± 0.2 | 1252.9 ± 1.1
293.15 K, x2 = 0.1968 | 764.024 ± 0.2 | 1250.3 ± 1
293.15 K, x2 = 0.2539 | 765.57 ± 0.2 | 1247.2 ± 1
293.15 K, x2 = 0.3056 | 767.093 ± 0.2 | 1244.4 ± 1
293.15 K, x2 = 0.3564 | 768.675 ± 0.2 | 1241.6 ± 1
293.15 K, x2 = 0.4105 | 770.501 ± 0.2 | 1238.7 ± 1
293.15 K, x2 = 0.4545 | 772.103 ± 0.2 | 1236.4 ± 1
293.15 K, x2 = 0.5005 | 773.872 ± 0.2 | 1234 ± 1
293.15 K, x2 = 0.5553 | 776.145 ± 0.2 | 1231.1 ± 1
293.15 K, x2 = 0.6022 | 778.277 ± 0.2 | 1228.9 ± 1
293.15 K, x2 = 0.6554 | 780.87 ± 0.2 | 1225.8 ± 1
293.15 K, x2 = 0.7036 | 783.444 ± 0.19 | 1223.3 ± 1
293.15 K, x2 = 0.7554 | 786.435 ± 0.19 | 1220.8 ± 1
293.15 K, x2 = 0.8022 | 789.404 ± 0.19 | 1218.7 ± 1
293.15 K, x2 = 0.8598 | 793.411 ± 0.19 | 1216.3 ± 1
293.15 K, x2 = 0.9001 | 796.544 ± 0.19 | 1215 ± 1
293.15 K, x2 = 0.9513 | 800.881 ± 0.19 | 1213.5 ± 1
298.15 K, x2 = 0.0681 | 756.775 ± 0.2 | 1237.3 ± 1
298.15 K, x2 = 0.1038 | 757.539 ± 0.2 | 1235.3 ± 1
298.15 K, x2 = 0.1625 | 758.95 ± 0.2 | 1232 ± 1
298.15 K, x2 = 0.2034 | 759.972 ± 0.2 | 1229.9 ± 1
298.15 K, x2 = 0.2603 | 761.475 ± 0.2 | 1226.7 ± 1
298.15 K, x2 = 0.3112 | 762.929 ± 0.2 | 1223.8 ± 1
298.15 K, x2 = 0.3523 | 764.175 ± 0.2 | 1221.6 ± 1
298.15 K, x2 = 0.3937 | 765.506 ± 0.2 | 1219.4 ± 1
298.15 K, x2 = 0.442 | 767.105 ± 0.2 | 1216.6 ± 1
298.15 K, x2 = 0.5018 | 769.396 ± 0.2 | 1213.3 ± 1
298.15 K, x2 = 0.5455 | 771.147 ± 0.2 | 1211 ± 1
298.15 K, x2 = 0.6036 | 773.698 ± 0.2 | 1207.7 ± 1
298.15 K, x2 = 0.6514 | 775.963 ± 0.2 | 1205.2 ± 1
298.15 K, x2 = 0.7003 | 778.472 ± 0.2 | 1202.7 ± 1
298.15 K, x2 = 0.7473 | 781.05 ± 0.2 | 1200.3 ± 1
298.15 K, x2 = 0.7978 | 784.142 ± 0.19 | 1197.9 ± 1
298.15 K, x2 = 0.8456 | 787.356 ± 0.19 | 1195.9 ± 1
298.15 K, x2 = 0.9022 | 791.581 ± 0.19 | 1193.7 ± 1
298.15 K, x2 = 0.9482 | 795.385 ± 0.19 | 1192.3 ± 1
303.15 K, x2 = 0.0621 | 752.548 ± 0.2 | 1218.9 ± 1
303.15 K, x2 = 0.1098 | 753.539 ± 0.2 | 1216.1 ± 1
303.15 K, x2 = 0.1666 | 754.759 ± 0.2 | 1212.6 ± 1
303.15 K, x2 = 0.2074 | 755.736 ± 0.2 | 1210.3 ± 1
303.15 K, x2 = 0.2593 | 757.08 ± 0.2 | 1207.2 ± 1
303.15 K, x2 = 0.309 | 758.454 ± 0.2 | 1204.7 ± 1
303.15 K, x2 = 0.3551 | 759.79 ± 0.2 | 1202 ± 1
303.15 K, x2 = 0.4045 | 761.368 ± 0.2 | 1199.3 ± 1
303.15 K, x2 = 0.4566 | 763.133 ± 0.2 | 1196.4 ± 1
303.15 K, x2 = 0.4957 | 764.551 ± 0.2 | 1194.1 ± 1
303.15 K, x2 = 0.5402 | 766.282 ± 0.2 | 1191.6 ± 1
303.15 K, x2 = 0.6005 | 768.842 ± 0.2 | 1188.2 ± 1
303.15 K, x2 = 0.6493 | 771.091 ± 0.2 | 1185.6 ± 1
303.15 K, x2 = 0.7004 | 773.646 ± 0.2 | 1182.9 ± 1
303.15 K, x2 = 0.7486 | 776.288 ± 0.2 | 1180.5 ± 1
303.15 K, x2 = 0.8005 | 779.398 ± 0.2 | 1177.9 ± 1
303.15 K, x2 = 0.8456 | 782.362 ± 0.19 | 1175.9 ± 1
303.15 K, x2 = 0.899 | 786.254 ± 0.19 | 1173.7 ± 1
303.15 K, x2 = 0.953 | 790.578 ± 0.19 | 1172 ± 1
